1 compound from patent US20220395438A1, “TOOTH WHITENING COMPOSITION” (Universitat Autonoma de Barcelona, priority 2019, published 2022) can be followed below.

A short description of the test: Tooth whitening treatments at 20 minutes according to 2^2 factorial design (colorimetric ΔE). Also noted: species or system bovine. The note with it: 8 specimens per treatment.

`O=S([O-])S(=O)(=O)[O-].[Na+].[Na+]` [Comparative 2, sodium metabisulfite]: the “increase in the whiteness of the tooth, ΔE ± standard deviation” value is, setting by setting: (3 minutes of treatment) 7.3 ± 1.5; (3 minutes of treatment, listed as MBS) 7.3; (6 minutes of treatment) 12.9 ± 0.8; (9 minutes of treatment) 14.7 ± 1.8; (14 minutes of treatment) 14.8 ± 1.7; (20 minutes of treatment) 16.2 ± 1.7.
